According to US20260265265A1, “NOVEL BENZIMIDAZOLONE DERIVATIVE COMPOUND AS AUTOTAXIN INHIBITOR” (LG CHEM, LTD., priority 2023, published 2026):
pIC50: −log10 of the molar value.

Molecular target: T1, Recombinant Human ENPP-2/Autotaxin (Homo sapiens, UniProt Q13822)
T1 construct: purchased R&D systems 5255-EN
Assay: LysoPLD activity measurement (autotaxin enzyme inhibition, choline release, TOOS reagent)
Type: biochemical
Conditions: LysoPLD inhibitory activity; substrate 14:0 LysoPC; absorbance at 555 nm
Description: Such a measurement method is a method of measuring the amount of choline, which is a reaction product in an autotaxin enzyme reaction, using a TOOS reagent. Depending on the activity of the autotaxin inhibitor, the amount of choline produced as a reaction product varies, which affects the final absorbance.
After 30 min, 14:0 LysoPC of the substrate diluted to a concentration of 300 μM with the enzyme reaction buffer solution was dispensed into each well by 50 μL and allowed to stand at 37° C. for 90 minutes. At this time, negative control wells were dispensed with 1% DMSO, substrate, and autotaxin instead of the compound, and positive control wells were dispensed with 1% DMSO and substrate.

pIC50 | SMILES
6.00 to 7.00 | O=C(O)c1cccc(Cn2c(=O)n(-c3ccccc3)c3cc(Cl)ccc32)c1 [Example 1, 3-((5-chloro-2-oxo-3-phenyl-2,3-dihydro-1H-benzo[d]imidazol-1-yl)methyl)benzoic acid]
7.00 to 8.00 | O=C(O)c1cccc(C2(n3c(=O)n(-c4ccc(S(=O)(=O)NCC5CCC5)cc4)c4cc(Cl)ccc43)CC2)c1 [Example 213, 3-(1-(5-chloro-3-(4-(N-(cyclobutylmethyl)sulfamoyl)phenyl)-2-oxo-2,3-dihydro-1H-benzo[d]imidazol-1-yl)cyclopropyl)benzoic acid]
6.00 to 7.00 | CCOc1ccc(-n2c(=O)n(Cc3cccc(C(=O)O)c3)c3ccc(Cl)cc32)cn1 [Example 75, 3-((5-chloro-3-(6-ethoxypyridin-3-yl)-2-oxo-2,3-dihydro-1H-benzo[d]imidazol-1-yl)methyl)benzoic acid]
6.00 to 7.00 | CN(C)c1ccc(-n2c(=O)n(Cc3cccc(C(=O)O)c3)c3ncc(Cl)cc32)cc1 [Example 161, 3-((6-chloro-1-(4-(dimethylamino)phenyl)-2-oxo-1,2-dihydro-3H-imidazo[4,5-b]pyridin-3-yl)methyl)benzoic acid]
7.00 to 8.00 | CC(C)Oc1ccc(-n2c(=O)n(Cc3cccc(C(=O)O)c3F)c3ccc(Cl)cc32)cc1 [Example 40, 3-((5-chloro-3-(4-isopropoxyphenyl)-2-oxo-2,3-dihydro-1H-benzo[d]imidazol-1-yl)methyl)-2-fluorobenzoic acid]
> 8.00 | O=C(O)c1cccc(Cn2c(=O)n(-c3ccc(C(=O)N4CCC(O)CC4)cc3)c3cc(Cl)ccc32)c1 [Example 61, 3-((5-chloro-3-(4-(4-hydroxypiperidin-1-carbonyl)phenyl)-2-oxo-2,3-dihydro-1H-benzo[d]imidazol-1-yl)methyl)benzoic acid]
7.00 to 8.00 | CN1Cc2cc(-n3c(=O)n(Cc4cccc(C(=O)O)c4F)c4ccc(Cl)cc43)ccc2C1=O [Example 117, 3-((5-chloro-3-(2-methyl-1-oxoisoindolin-5-yl)-2-oxo-2,3-dihydro-1H-benzo[d]imidazol-1-yl)methyl)-2-fluorobenzoic acid]
7.00 to 8.00 | O=C(O)c1cc(F)cc(Cn2c(=O)n(-c3ccc(N4CCOCC4)cc3)c3c(F)c(Cl)ccc32)c1 [Example 49, 3-((5-chloro-4-fluoro-3-(4-morpholinophenyl)-2-oxo-2,3-dihydro-1H-benzo[d]imidazol-1-yl)methyl)-5-fluorobenzoic acid]
7.00 to 8.00 | O=C(O)c1cccc(Cn2c(=O)n(-c3ccc(N4CCOCC4)nc3)c3cc(Cl)ccc32)c1 [Example 78, 3-((5-chloro-3-(6-morpholinopyridin-3-yl)-2-oxo-2,3-dihydro-1H-benzo[d]imidazol-1-yl)methyl)benzoic acid]
> 8.00 | CCC(=O)N1CCC(c2ccc(-n3c(=O)n(C4(c5cccc(C(=O)O)c5)CC4)c4ccc(Cl)cc43)cc2)CC1 [Example 234, 3-(1-(5-chloro-2-oxo-3-(4-(1-propionylpiperidin-4-yl)phenyl)-2,3-dihydro-1H-benzo[d]imidazol-1-yl)cyclopropyl)benzoic acid]
> 8.00 | CN(C)C(=O)c1ccc(-n2c(=O)n(C3(c4cccc(C(=O)O)c4)CC3)c3ncc(Cl)cc32)cc1 [Example 223, 3-(1-(6-chloro-1-(4-(dimethylcarbamoyl)phenyl)-2-oxo-1,2-dihydro-3H-imidazo[4,5-b]pyridin-3-yl)cyclopropyl)benzoic acid]
6.00 to 7.00 | CN1CCN(c2ccc(-n3c(=O)n(Cc4cccc(C(=O)O)c4)c4ccc(Cl)cc43)cn2)CC1 [Example 81, 3-((5-chloro-3-(6-(4-methylpiperazin-1-yl)pyridin-3-yl)-2-oxo-2,3-dihydro-1H-benzo[d]imidazol-1-yl)methyl)benzoic acid]
7.00 to 8.00 | O=C(O)c1cccc(Cn2c(=O)n(-c3ccc(C(=O)N4CCOCC4)cc3)c3cc(Cl)ccc32)c1 [Example 44, 3-((5-chloro-3-(4-(morpholine-4-carbonyl)phenyl)-2-oxo-2,3-dihydro-1H-benzo[d]imidazol-1-yl)methyl)benzoic acid]
6.00 to 7.00 | O=C(O)c1cccc(Cn2c(=O)n(-c3ccc(N4CCC(F)(F)C4)nc3)c3cc(Cl)ccc32)c1F [Example 166, 3-((5-chloro-3-(6-(3,3-difluoropyrrolidine-1-yl)pyridin-3-yl)-2-oxo-2,3-dihydro-1H-benzo[d]imidazol-1-yl)methyl)-2-fluorobenzoic acid]
> 8.00 | O=C(O)c1cccc(C2(n3c(=O)n(-c4ccc(C(=O)N5CC(O)C5)cc4)c4cc(Cl)ccc43)CC2)c1F [Example 134, 3-(1-(5-chloro-3-(4-(3-hydroxyazetidine-1-carbonyl)phenyl)-2-oxo-2,3-dihydro-1H-benzo[d]imidazol-1-yl)cyclopropyl)-2-fluorobenzoic acid]
> 8.00 | O=C(O)c1cccc(C2(n3c(=O)n(-c4ccc(CC(=O)N5CCCCC5)cc4)c4cc(Cl)ccc43)CC2)c1 [Example 171, 3-(1-(5-chloro-2-oxo-3-(4-(2-oxo-2-(piperidin-1-yl)ethyl)phenyl)-2,3-dihydro-1H-benzo[d]imidazol-1-yl)cyclopropyl)benzoic acid]
> 8.00 | O=C(O)c1cccc(C2(n3c(=O)n(-c4ccc(N5CC6CCC(C5)O6)cc4)c4cc(Cl)ccc43)CC2)c1 [Example 182, 3-(1-(3-(4-(8-oxa-3-azabicyclo[3.2.1]octan-3-yl)phenyl)-5-chloro-2-oxo-2,3-dihydro-1H-benzo[d]imidazol-1-yl)cyclopropyl)benzoic acid]
7.00 to 8.00 | O=C(O)c1cccc(C2(n3c(=O)n(-c4ccc(N5CC6(CCC6)C5)cc4)c4cc(Cl)ccc43)CC2)c1 [Example 184, 3-(1-(3-(4-(2-azaspiro[3.3]heptan-2-yl)phenyl)-5-chloro-2-oxo-2,3-dihydro-1H-benzo[d]imidazol-1-yl)cyclopropyl)benzoic acid]
> 8.00 | CN(C)c1ccc(-n2c(=O)n(C3(c4cccc(C(=O)O)c4)CC3)c3ncc(Cl)cc32)cc1 [Example 221, 3-(1-(6-chloro-1-(4-(dimethylamino)phenyl)-2-oxo-1,2-dihydro-3H-imidazo[4,5-b]pyridin-3-yl)cyclopropyl)benzoic acid]
> 8.00 | O=C(O)c1cccc(C2(n3c(=O)n(-c4ccc(N5CCOCC5)cc4)c4cc(C(F)(F)F)ccc43)CC2)c1 [Example 207, 3-(1-(3-(4-morpholinophenyl)-2-oxo-5-(trifluoromethyl)-2,3-dihydro-1H-benzo[d]imidazol-1-yl)cyclopropyl)benzoic acid]
> 8.00 | O=C(O)c1cccc(C2(n3c(=O)n(-c4ccc(C(=O)N5CC6(COC6)C5)cc4)c4cc(Cl)ccc43)CC2)c1 [Example 137, 3-(1-(3-(4-(2-oxa-6-azaspiro[3.3]heptane-6-carbonyl)phenyl)-5-chloro-2-oxo-2,3-dihydro-1H-benzo[d]imidazol-1-yl)cyclopropyl)benzoic acid]
> 8.00 | O=C1COc2cc(-n3c(=O)n(C4(c5cc(F)cc(C(=O)O)c5)CC4)c4ccc(Cl)cc43)ccc2N1 [Example 254, 3-(1-(5-chloro-2-oxo-3-(3-oxo-3,4-dihydro-2H-benzo[b][1,4]oxazin-7-yl)-2,3-dihydro-1H-benzo[d]imidazol-1-yl)cyclopropyl)-5-fluorobenzoic acid]
7.00 to 8.00 | O=C(O)c1cccc(Cn2c(=O)n(-c3ccc(N4CCC(F)(F)CC4)cc3)c3cc(Cl)ccc32)c1 [Example 94, 3-((5-chloro-3-(4-(4,4-difluoropiperidin-1-yl)phenyl)-2-oxo-2,3-dihydro-1H-benzo[d]imidazol-1-yl)methyl)benzoic acid]
7.00 to 8.00 | O=C(O)c1cccc(C2(n3c(=O)n(-c4ccc(C5CCOCC5)cc4)c4cc(Cl)cnc43)CC2)c1F [Example 228, 3-(1-(6-chloro-2-oxo-1-(4-(tetrahydro-2H-pyran-4-yl)phenyl)-1,2-dihydro-3H-imidazo[4,5-b]pyridin-3-yl)cyclopropyl)-2-fluorobenzoic acid]
7.00 to 8.00 | O=C(O)c1cccc(C2(n3c(=O)n(-c4ccc(N5CCOCC5)cc4)c4cc(Cl)cnc43)CC2)c1F [Example 230]
> 8.00 | O=C(O)c1cc(F)cc(C2(n3c(=O)n(-c4ccc(N5CC6(COC6)C5)cc4)c4cc(Cl)ccc43)CC2)c1 [Example 191, 3-(1-(3-(4-(2-oxa-6-azaspiro[3.3]heptan-6-yl)phenyl)-5-chloro-2-oxo-2,3-dihydro-1H-benzo[d]imidazol-1-yl)cyclopropyl)-5-fluorobenzoic acid]
> 8.00 | CN(C)C(=O)c1ccc(-n2c(=O)n(Cc3cccc(C(=O)O)c3)c3ccc(Cl)cc32)cc1 [Example 21, 3-((5-chloro-3-(4-(dimethylcarbamoyl)phenyl)-2-oxo-2,3-dihydro-1H-benzo[d]imidazol-1-yl)methyl)benzoic acid]
> 8.00 | O=C(O)c1cccc(Cn2c(=O)n(-c3ccc(C(=O)N4CCCCC4)cc3)c3cc(Cl)ccc32)c1F [Example 57, 3-((5-chloro-2-oxo-3-(4-(piperidine-1-carbonyl)phenyl)-2,3-dihydro-1H-benzo[d]imidazol-1-yl)methyl)-2-fluorobenzoic acid]
> 8.00 | O=C(O)c1cc(F)cc(C2(n3c(=O)n(-c4ccc(N5CCOCC5)cc4)c4cc(Cl)cnc43)CC2)c1 [Example 274, 3-(1-(6-chloro-1-(4-morpholinophenyl)-2-oxo-1,2-dihydro-3H-imidazo[4,5-b]pyridin-3-yl)cyclopropyl)-5-fluorobenzoic acid]
> 8.00 | O=C(O)c1cccc(C2(n3c(=O)n(-c4ccc(C(=O)N5CCC(F)(F)C5)cc4)c4cc(Cl)ccc43)CC2)c1 [Example 130, 3-(1-(5-chloro-3-(4-(3,3-difluoropyrrolidine-1-carbonyl)phenyl)-2-oxo-2,3-dihydro-1H-benzo[d]imidazol-1-yl)cyclopropyl)benzoic acid]
